Assay results taken from ChEMBL document CHEMBL1201862, “PubChem BioAssay data set” (2004).
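The compound was tested at five concentrations on cells cultured in 96-well plates, with a 48-hour exposure period. At the GI50, growth is halved.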 Calls of active or inactive are those of the source. No stated cut-off is given here; in the data, active = GI50 up to about 1.1 µM and inactive = higher.

Columns and labels:
Experiment in all cases: NCI anticancer screen, dose series, 48 h
U-251 = tested on: U-251
DLD-1 = tested on: DLD-1
UO-31 = tested on: UO-31
IGROV-1 = tested on: IGROV-1
786-0 = tested on: 786-0
SF-539 = tested on: SF-539
CAKI-1 = tested on: CAKI-1
HT-29 = tested on: HT-29
NCI-H226 = tested on: NCI-H226
MOLT-4 = tested on: MOLT-4
HCC 2998 = tested on: HCC 2998
DMS-114 = tested on: DMS-114
M14 = tested on: M14
SNB-78 = tested on: SNB-78
CCRF-CEM = tested on: CCRF-CEM
HCT-116 = tested on: HCT-116
SNB-75 = tested on: SNB-75
NCI-H522 = tested on: NCI-H522
SF-295 = tested on: SF-295
RXF 393 = tested on: RXF 393
SF-268 = tested on: SF-268
HCT-15 = tested on: HCT-15
LXFL 529 = tested on: LXFL 529
M19-MEL = tested on: M19-MEL
SK-MEL-28 = tested on: SK-MEL-28
OVCAR-4 = tested on: OVCAR-4
Malme-3M = tested on: Malme-3M
COLO 205 = tested on: COLO 205
HOP-62 = tested on: HOP-62
OVCAR-5 = tested on: OVCAR-5
LOX IMVI = tested on: LOX IMVI
KM12 = tested on: KM12
OVCAR-3 = tested on: OVCAR-3
NCI-H23 = tested on: NCI-H23
K562 = tested on: K562
HOP-18 = tested on: HOP-18
SR = tested on: SR
SW-620 = tested on: SW-620
OVCAR-8 = tested on: OVCAR-8
SK-MEL-5 = tested on: SK-MEL-5
HL-60 = tested on: HL-60
SN12C = tested on: SN12C
UACC-62 = tested on: UACC-62
KM-20L2 = tested on: KM-20L2
RPMI-8226 = tested on: RPMI-8226
NCI-H460 = tested on: NCI-H460
UACC-257 = tested on: UACC-257
HOP-92 = tested on: HOP-92
DMS-273 = tested on: DMS-273
A498 = tested on: A498
SK-OV-3 = tested on: SK-OV-3
A549 = tested on: A549
SK-MEL-2 = tested on: SK-MEL-2
ACHN = tested on: ACHN
SNB-19 = tested on: SNB-19
TK-10 = tested on: TK-10

With `Clc1cc(Cc2cc(Cl)c(Cl)c3c2OCOC3)c2c(c1Cl)COCO2` the GI50 (U-251) was 29.1 µM (inactive), the GI50 (DLD-1) was > 100 µM (inactive) and the GI50 (UO-31) was 34.6 µM (inactive). The GI50 (IGROV-1) was 40.6 µM (inactive), the GI50 (786-0) was 25.1 µM (inactive) and the GI50 (SF-539) was 17.8 µM (inactive). The GI50 (CAKI-1) was 22.3 µM (inactive), the GI50 (HT-29) was > 100 µM (inactive) and the GI50 (NCI-H226) was 28.1 µM (inactive). The GI50 (MOLT-4) was 56.2 µM (inactive), the GI50 (HCC 2998) was > 100 µM (inactive) and the GI50 (DMS-114) was 45.5 µM (inactive). For the same molecule, the GI50 (M14) was 38.4 µM (inactive), the GI50 (SNB-78) was 45.1 µM (inactive) and the GI50 (CCRF-CEM) was 30.1 µM (inactive). For the same molecule, the GI50 (HCT-116) was 36.4 µM (inactive), the GI50 (SNB-75) was 27.5 µM (inactive) and the GI50 (NCI-H522) was 41.9 µM (inactive). For the same molecule, the GI50 (SF-295) was 26.2 µM (inactive), the GI50 (RXF 393) was 31.7 µM (inactive) and the GI50 (SF-268) was > 100 µM (inactive). The GI50 (HCT-15) was over 100 µM, the GI50 (LXFL 529) was 37.7 µM (inactive) and the GI50 (M19-MEL) was 82.8 µM (inactive). For the same molecule, the GI50 (SK-MEL-28) was > 100 µM (inactive), the GI50 (OVCAR-4) was 18.7 µM (inactive) and the GI50 (Malme-3M) was 40.6 µM (inactive). The GI50 (COLO 205) was 70 µM (inactive), the GI50 (HOP-62) was 25.8 µM (inactive) and the GI50 (OVCAR-5) was > 100 µM (inactive). The GI50 (LOX IMVI) was 53.1 µM (inactive), the GI50 (KM12) was > 100 µM (inactive) and the GI50 (OVCAR-3) was 25.3 µM (inactive). The GI50 (NCI-H23) was > 100 µM (inactive), the GI50 (K562) was 43.9 µM (inactive) and the GI50 (HOP-18) was 23.8 µM (inactive). The GI50 (SR) was 55.2 µM (inactive), the GI50 (SW-620) was > 100 µM (inactive) and the GI50 (OVCAR-8) was 36.8 µM (inactive). For the same molecule, the GI50 (SK-MEL-5) was 43.2 µM (inactive), the GI50 (HL-60) was 93.1 µM (inactive) and the GI50 (SN12C) was 58.6 µM (inactive). The GI50 (UACC-62) was 49.1 µM (inactive), the GI50 (KM-20L2) was > 100 µM (inactive) and the GI50 (RPMI-8226) was 33.4 µM (inactive). The GI50 (NCI-H460) was 43.8 µM (inactive), the GI50 (UACC-257) was 94 µM (inactive) and the GI50 (HOP-92) was 16.9 µM (inactive). For the same molecule, the GI50 (DMS-273) was 38.7 µM (inactive), the GI50 (A498) was 28.4 µM (inactive) and the GI50 (SK-OV-3) was 23.3 µM (inactive). For the same molecule, the GI50 (A549) was 40.9 µM (inactive), the GI50 (SK-MEL-2) was 55.5 µM (inactive) and the GI50 (ACHN) was 32.4 µM (inactive). The GI50 (SNB-19) was 38 µM (inactive) and the GI50 (TK-10) was 29.9 µM (inactive).
